# Measured values from patent US20170157000A1, “COSMETIC PRODUCT WITH LIPOSOMAL GROWTH FACTORS” (DERMOPARTNERS, S.L., priority 2014, published 2017).
# How the values were obtained:
# TNFa transcripts = assay: Anti-inflammatory effect by quantitative PCR after LPS, TNFa transcripts; assay type: cell-based, human; conditions: cells with prior inflammation induced with 200 ng/ml LPS for three hours, dose dependent
# Text: (§1) PCR in real time or quantitative PCR is a variation of standard PCR used for quantifying DNA or messenger RNA (mRNA) of a sample. Using specific sequence primers, it is possible to determine the number of copies or the relative quantity of a determined DNA or RNA sequence.
# (§2) When PCR in real time is combined with a retro-transcription or RT reaction (RTPCR), the mRNA quantity of a sample may be determined by means of a relative quantification. Said quantification is termed relative if the relative quantity or ratio of mRNA of a specific gene is compared with respect to the mRNA quantity of a constitutive gene (endogenous control, GAPDH in this case) among different samples. This is what is termed as normalization of the specific gene expression or normalizing with respect to the different total concentration of RNA of the samples since if the quantity of endogenous control varies it is due to changes in the total RNA quantity used in the synthesis of cDNA, not to changes in its expression. For the quantification, the quantity of amplicon produced is measured in each cycle of PCR. The quantification of the product is produced by means of the addition of fluorophores which join to the amplicon in a quantitative manner such that the greater the product, the greater the fluorescence that will be emitted. […]
# [1] = system: human keratinocytes (HaCaT); assay: MTT cell proliferation assay in human keratinocytes; assay type: cell-based; conditions: 72 hours
# Text: (§3) This assay is based on metabolic reduction of bromide 3-(4,5-dimethylthiazol-2-yl)-2,5-diphenyltetrazolium (MTT) carried out by the mitochondrial succinate dehydrogenase enzyme in a blue colored compound (formazan), allowing the mitochondrial functionality of the treated cells to be determined. This method has been very widely used to measure cell survival and proliferation. The quantity of live cells is proportional to the quantity of formazan produced. This method was developed by Mosmann in 1983, modified in 1986 by Francois Denizot and Rita Lang. • 1. Using trypsin, separate the cells and re-suspend them in supplemented culture medium (10% of bovine fetal serum and antibiotic). • 2. Determine the number of cells required per well using a Neubauer camera (HaCaT: 5,000 cells/96 well, 30,000 cells/24 well; HSF: 4,000 cells/96 well, 30,000 cells/24 well. • 3. Incubate at 37° C. and 5% of CO2 for 24 hours to allow for the adherence thereof. • 4. Prepare the mixtures of free and liposomated factor at the indicated concentrations, remove the medium and add the mixtures. • 5. Incubate at 37° C. and 5% of CO2 for 72 hours. • 6. Add MTT (1.9 mg/ml) in PBS solution (25 μl total) over the medium • 7. Incubate for 3 hours at 37° C. to allow for the formation of formazan crystals. • 8. Then remove the supernatant and add 100 μl of DMSO. • 9. Incubate for 30 minutes at 37° C. to allow for the formazan crystals to dissolve • 10. The optical density reading (OD) is carried out in a spectrophotometer at a wavelength of 570 nm. • The viability percentage is obtained in the following manner: % viability—DO cells treated×100/DO control cells
# human fibroblasts (HSF) [2] = assay: MTT cell proliferation assay in human fibroblasts; assay type: cell-based; conditions: 72 hours
# Text: as §3
# [3] = system: human keratinocytes (HaCaT); assay: Wound healing assay (cell migration) in human keratinocytes; assay type: cell-based; conditions: 1 ng/ml; for wound closed more quickly than in the control cells: at 24 hours of treatment; for wound closure: at 48 hours
# Text: (§4) The objective of the wound healing assay is the study of cell migration. It is based on observing the behavior of a confluent cell monolayer on which a hole or wound has been previously made. The cells at the border of the hole move towards the opening until new cell-cell contacts are established, thus closing the wound.
# (§5) The basic steps involve creating the wound or cell free area on the cell monolayer, the capture of images periodically during the experiment and the comparison of all the images to determine the velocity of cell migration.
# • 1. Cultivate the cells until confluence (100% approx.) in plates of 6 wells (HaCaT: 500,000 cells/6 well; HSF: 500,000 cells/6 well) • 2. Incubate at 37° C. and 5% of CO2 for 24 hours. • 3. Scaling of the wounds (2 wounds per horizontal trajectory well using yellow sterile points (P200). They are dragged along the monolayer with an angle of inclination of 30 degrees (not perpendicular to the plate) and guided with a previously marked section. Mark three points for taking measurements. • 4. Leave to rest for 15 minutes before adding the treatment. • 5. Prepare the mixtures of free and liposomated factors at a concentration of 1 ng/ml, the medium is removed and add the mixtures. • 6. Incubate at 37° C. and 5% of CO2 for 72 hours. • 7. Take measurements at the times 0, 24, 48 and 72 hours.
# The percentage of migration is obtained in the following manner:
# (§6) % migration=(time measured 0−time measured X/time measured 0)*100
# [4] = system: transcripts of the gene of the elastin; assay: Induction of elastin synthesis by quantitative PCR in fibroblasts; assay type: cell-based, human; conditions: control = value 1, dose dependent, 72 hours
# Text: as §1, §2
# IL6 transcripts = assay: Anti-inflammatory effect by quantitative PCR after LPS, IL6 transcripts; assay type: cell-based, human; conditions: cells with prior inflammation induced with 200 ng/ml LPS for three hours, dose dependent
# Text: as §1, §2
# [5] = system: transcripts of the gene of the elastin; assay: Induction of elastin synthesis by quantitative PCR in keratinocytes; assay type: cell-based, human; conditions: control = value 1, dose dependent, 72 hours
# Text: as §1, §2
# human fibroblasts (HSF) [6] = assay: Wound healing assay (cell migration) in human fibroblasts; assay type: cell-based; conditions: 1 ng/ml
# Text: as §4, §5
# • 1. Cultivate the cells until confluence (100% approx.) in plates of 6 wells (HaCaT: 500,000 cells/6 well; HSF: 500,000 cells/6 well) • 2. Incubate at 37° C. and 5% of CO2 for 24 hours. • 3. […]
# as §6
# [7] = concentrations greater than 1 ng/ml
# [8] = low concentrations 0.01 ng/ml-0.5 ng/ml, untreated cells = 100% proliferation
Molecule,transcript levels of TNFa (TNFa transcripts),"cell proliferation above the untreated cells [1, 7]",cell proliferation (untreated cells = 100%) (human fibroblasts (HSF) [2]; concentration not given),cell proliferation (untreated cells = 100%) (human fibroblasts (HSF) [2]; [7]),wound closed more quickly than in the control cells [3],wound closure [3],synthesis of elastin (elastin gene transcripts) with respect to the control cells [4],transcript levels of IL6 (IL6 transcripts),synthesis of elastin (elastin gene transcripts) with respect to the control cells [5],repair velocity of the wound versus control cells (human fibroblasts (HSF) [6]),"cell proliferation above the untreated cells [1, 8]",cell proliferation above the untreated cells (human fibroblasts (HSF) [2]; [7]),cell proliferation above the untreated cells (human fibroblasts (HSF) [2]; [8]),"repair velocity of the wound, more quickly with respect to the control (human fibroblasts (HSF) [6])",cell proliferation above the untreated cells (human fibroblasts (HSF) [2]; concentration of 0.5 ng/ml)
Nicotiana benthamiana Sh-Polypeptide-7 [HGH free factor],decrease,around 20%,around 100%,around 100%,40%,completely closed,increase in the synthesis of elastin,decrease,increase in the synthesis of elastin,hardly any difference,,,,,
Nicotiana benthamiana Sh-Polypeptide-45 [GM-CSF free factor],decrease,around 20%,,,13%,completely closed,increase in the synthesis of elastin,decrease,increase in the synthesis of elastin,,20%,around 60%,100%,20%,
"follistatin (protein, UniProt P19883 30-344, looked up, growth factor follistatin analyzed in free form) Follistatin: GNCWLRQAKNGRCQVLYKTELSKEECCSTGRLSTSWTEEDVNDNTLFKWMIFNGGAPNCIPCKETCENVDCGPGKKCRMNKKNKPRCVCAPDCSNITWKGPVCGLDGKTYRNECALLKARCKEQPELEVQYQGRCKKTCRDVFCPGSSTCVVDQTNNAYCVTCNRICPEPASSEQYLCGNDGVTYSSACHLRKATCLLGRSIGLAYEGKCIKAKSCEDIQCTGGKKCLWDFKVGRGRCSLCDELCPDSKSDEPVCASDNATYASECAMKEAACSSGVLLEVKHSGSCNSISEDTEEEEEDEDQDYSFPISSILEW",,,,,,,,,,,,maintains cell proliferation around the control,,,40%
